Source: US20260356846A1, “STATIN DERIVATIVES AND METHODS OF USING THE SAME” (The General Hospital Corporation, priority 2023, published 2026)
Like-named read-outs stand apart in the source and are kept apart here.

Legend:
[1] = tested on: STMN2 (WT STMN2-NLuc SH-SY5Y cells); experiment: STMN2 nanoluciferase assay in WT SH-SY5Y cells (Table A: WT TDP-32; Table B: WT HD Luciferase); format: cell-based, human; settings: WT cell line; for maximal fold induction: Emax
Description: (§1) Neuroblastoma cells (ATCC) were cultured in DMEM/F12 (Gibco) supplemented with 10% fetal-bovine serum (Omega) and 1% penicillin-streptomycin (Gibco) at 37 °C with 5% CO2. For knockdown experiments, cells were transfected with SMARTpool ON-TARGETplus siRNA or control siRNA pool (D001810-10) (GE Dharmacon) at a final concentration of 50 nM, for 96 h in two doses (0, 24 h), after complexing with Lipofectamin RNAiMAX (Invitrogen) in Opti-MEM (Gibco) for 10 min.
(§2) WT and TDP-mut (N352S) SH-SY5Y cells were edited using CRISPR-Cas9 to express Nanoluciferase at the C-terminus of both endogenous STMN2 alleles. A single guided RNA targeting STMN2 C-terminus was designed (Benchling webtool) and cloned into pSpCas9-2A-green fluorescent protein (GFP) plasmid (px458-Addgene) using the BbsI restriction site. The sequence for guided RNA targeting STMN2 was: […]. For the repair template, overlapping fragments of 800 bp STMN2 homology arms flanking Nanoluciferase (NLuc, Promega) were generated and ligated into pUC57 backbone. A 42 bp GS-linker was also included 5′ to NLuc to prevent steric hindrance of the reporter to the final STMN2 exon. Fragments were ligated using Gibson Assembly and nucleofected simultaneously with pSpCas9-2A-GFP-gRNA plasmid using the Amaxa Nucleofector (assay A-023). Forty-eight hours following electroporation, cells were collected, and GFP-positive cells sorted and single-cell seeded into 96-well plates using the SH800S Sony cell sorter. Individual clones were expanded and DNA was extracted for PCR amplification of the STMN2 Ex5 genomic locus using primers within NLuc and outside the STMN2 5′ homology arm to confirm presence of the insert. The entire STMN2 coding region and all exon-intron junctions (>500-bp length of each intronic region) were then sequenced to verify the absence of any additional DNA alteration. qPCR analysis was performed with a wild-type isogenic SH-SY5Y cell line that had undergone the mutagenesis attempt but not acquired the insertion mutation during the original screening process.
(§3) TDP-mut STMN2-NLuc SH-SY5Y cells were used in small-molecule screening at ICCB-Longwood. 3000 cells/well were plated in white 384-well plates using a 50 ul sample volume. 24 hours after plating, compounds were added using 100 nl pin transfer. 24 hours later, 25 ul NLuc assay was added to each well according to manufacturer instructions (Promega, Cat #). Plates were shaken for 1 min prior to luminescence readings using EnVision2 machine. DMSO-only and WT STMN2-NLuc cells were included as negative and positive controls respectively on each plate, producing an average Z′score of ~0.7 across the screen. Each library plate was conducted in duplicate, and Z-scores calculated for each compound. For subsequent validation experiments, cell numbers in each well were quantified by hoescht staining at 1 μg/ml for 15 mins at 37C in black, clear bottom plates, prior to imaging at 4× using automated microscopy (ImageXpressMicro). Nuclei were then counted using a custom algorithm, and luciferase assay run as above. Luminescence results were then normalised against cell counts as RLU/cell.
(§4) Each compound was tested in triplicate in log doses ranging 0.01 μM−10 μM. The values are represented in luminescence normalized to the number of cells in the well, wherein darker grey correlates to higher RLU per cell and higher STMN2 protein expression.

[2] = tested on: STMN2 (TDP-mut (N352S) STMN2-NLuc SH-SY5Y cells); experiment: STMN2 nanoluciferase assay in TDP-43 mutant SH-SY5Y cells (Table A: mut TDP-43; Table B: mut HD Luciferase); format: cell-based, human; settings: mutant TDP-43 cell line
Description: as §1, §2, §3, §4

[3] = Homo sapiens, SH-SY5Y, Table A, read-out: EC50, WT TDP-32
[4] = Homo sapiens, SH-SY5Y, Table B, read-out: EC50, WT HD Luciferase
[5] = Homo sapiens, SH-SY5Y, Table A, read-out: EC50, mut TDP-43
[6] = Homo sapiens, SH-SY5Y, Table B, read-out: EC50, mut HD Luciferase

| Structure (SMILES) | EC50 [1, 3] [nM] | maximal fold induction ([1]; Homo sapiens, SH-SY5Y, Table B) | EC50 [1, 4] [nM] | EC50 [2, 5] [nM] | EC50 [2, 6] [nM] | HD Luciferase (mut, Emax) ([2]; Table B) | EC50 ([1]; Table B, read-out: EC50, WT HD Luciferase) [nM] | EC50 ([2]; Table B, read-out: EC50, mut HD Luciferase) [nM] |
| --- | --- | --- | --- | --- | --- | --- | --- | --- |
| COCc1c(C2CCC2)nc(C2CCC2)c(/C=C/[C@@H](O)C[C@@H](O)CC(=O)O)c1-c1ccc(F)cc1Cl [II-3, (3R,5S,E)-7-(4-(2-chloro-4-fluorophenyl)-2,6-dicyclobutyl-5-(methoxymethyl)pyridin-3-yl)-3,5-dihydroxyhept-6-enoic acid] | 500 to 1000 | 1.25 to 1.5 | 100 to 500 | 500 to 1000 | 100 to 500 | ** (means≥1.25 and <1.5) |  |  |
| Cc1csc2c(-c3ccc(F)cc3)c(/C=C/[C@@H](O)C[C@@H](O)CC(=O)N(C)C)c(C3CC3)nc12 [Example I-26, (3R,5S,E)-7-(5-cyclopropyl-7-(4-fluorophenyl)-3-methylthieno[3,2-b]pyridin-6-yl)-3,5-dihydroxy-N,N-dimethylhept-6-enamide] |  | 1 to 1.25 | ≥ 500 |  | ≥ 500 | * (means≥1 and <1.25) |  |  |
| COCc1c(C2CC2)nc(C2CC2)c(/C=C/[C@@H](O)C[C@@H](O)CC(=O)O)c1-c1c(C)cccc1F [II-18, (3R,5S,E)-7-(2,6-dicyclopropyl-4-(2-fluoro-6-methylphenyl)-5-(methoxymethyl)pyridin-3-yl)-3,5-dihydroxyhept-6-enoic acid] |  |  | 10 to 50 |  | 10 to 50 |  |  |  |
| O=C(O)C[C@H](O)C[C@H](O)/C=C/c1c(C2CC2)cc2scnc2c1-c1ccc(F)cc1 [Example I-9, (3R,5S,E)-7-(6-cyclopropyl-4-(4-fluorophenyl)benzo[d]thiazol-5-yl)-3,5-dihydroxyhept-6-enoic acid] | ≥ 10000 | 1 to 1.25 | ≥ 500 | 5000 to 10000 | ≥ 500 | * (means≥1 and <1.25) |  |  |
| COCc1c(C23CC(C2)C3)nc(C2CC2)c(/C=C/[C@@H](O)C[C@@H](O)CC(=O)O)c1-c1ccc(F)cc1 [II-2, (3R,5S,E)-7-(6-(bicyclo[1.1.1]pentan-1-yl)-2-cyclopropyl-4-(4-fluorophenyl)-5-(methoxymethyl)pyridin-3-yl)-3,5-dihydroxyhept-6-enoic acid] | 100 to 500 |  | ≤ 10 | ≤ 100 | ≤ 10 |  |  |  |
| COCc1c(C2CC2)nc(C2CC2)c(/C=C/[C@@H](O)C[C@@H](O)CC(=O)O)c1-c1ccc(Cl)cc1F [II-19, (3R,5S,E)-7-(4-(4-chloro-2-fluorophenyl)-2,6-dicyclopropyl-5-(methoxymethyl)pyridin-3-yl)-3,5-dihydroxyhept-6-enoic acid] |  |  | 10 to 50 |  | 10 to 50 |  |  |  |
| Cc1csc2nc(C3CC3)c(/C=C/[C@@H](O)C[C@@H](O)CC(=O)O)c(-c3ccc(F)cc3)c12 [Example I-10, (3R,5S,E)-7-(6-cyclopropyl-4-(4-fluorophenyl)-3-methylthieno[2,3-b]pyridin-5-yl)-3,5-dihydroxyhept-6-enoic acid] |  |  | 10 to 50 |  | 10 to 50 |  |  |  |
| COCc1c(C2CC2)nc(C2CC2)c(/C=C/[C@@H](O)C[C@@H](O)CC(=O)O)c1-c1c(C)cc(F)cc1F [II-17, (3R,5S,E)-7-(2,6-dicyclopropyl-4-(2,4-difluoro-6-methylphenyl)-5-(methoxymethyl)pyridin-3-yl)-3,5-dihydroxyhept-6-enoic acid] |  | 1.5 to 1.75 | ≤ 10 |  | ≤ 10 |  |  |  |
| COCc1c(C2CC2)nc(C2CC2)c(/C=C/[C@@H](O)C[C@@H](O)CC(=O)O)c1-c1ccc(F)cc1Cl [II-9, (3R,5S,E)-7-(4-(2-chloro-4-fluorophenyl)-2,6-dicyclopropyl-5-(methoxymethyl)pyridin-3-yl)-3,5-dihydroxyhept-6-enoic acid] | ≤ 100 | 1.5 to 1.75 | ≤ 10 | ≤ 100 | ≤ 10 |  |  |  |
| Cc1cc(F)ccc1-c1cc(C23CC(C2)C3)nc(C2CC2)c1/C=C/[C@@H](O)C[C@@H](O)CC(=O)O [II-14, (3R,5S,E)-7-(6-(bicyclo[1.1.1]pentan-1-yl)-2-cyclopropyl-4-(4-fluoro-2-methylphenyl)pyridin-3-yl)-3,5-dihydroxyhept-6-enoic acid] |  |  | 100 to 500 |  | 100 to 500 |  |  |  |
| Cc1nc2c(-c3ccc(F)cc3)c(/C=C/[C@@H](O)C[C@@H](O)CC(=O)O)c(C3CC3)cc2s1 [Example I-7, (3R,5S,E)-7-(6-cyclopropyl-4-(4-fluorophenyl)-2-methylbenzo[d]thiazol-5-yl)-3,5-dihydroxyhept-6-enoic acid] | 1000 to 5000 | 1 to 1.25 | 100 to 500 | 1000 to 5000 | 100 to 500 | ** (means≥1.25 and <1.5) |  |  |
| Cc1cc(F)ccc1-c1c(/C=C/[C@@H](O)C[C@@H](O)CC(=O)O)c(C2CC2)nc2c(C)csc12 [Example I-13, (3R,5S,E)-7-(5-cyclopropyl-7-(4-fluoro-2-methylphenyl)-3-methylthieno[3,2-b]pyridin-6-yl)-3,5-dihydroxyhept-6-enoic acid] |  |  | 10 to 50 |  | 10 to 50 |  |  |  |
| O=C(O)C[C@H](O)C[C@H](O)/C=C/c1c(C2CC2)nc2scnc2c1-c1ccc(F)cc1 [Example I-2, (3R,5S,E)-7-(5-cyclopropyl-7-(4-fluorophenyl)thiazolo[5,4-b]pyridin-6-yl)-3,5-dihydroxyhept-6-enoic acid] |  | 1 to 1.25 | ≥ 500 |  | ≥ 500 | * (means≥1 and <1.25) |  |  |
| O=C(O)C[C@H](O)C[C@H](O)/C=C/c1c(C2CC2)cc2ncsc2c1-c1ccc(F)cc1 [Example I-11, (3R,5S,E)-7-(5-cyclopropyl-7-(4-fluorophenyl)benzo[d]thiazol-6-yl)-3,5-dihydroxyhept-6-enoic acid] |  |  | 10 to 50 |  | 10 to 50 | ** (means≥1.25 and <1.5) |  |  |
| COCc1c(C2CC2)nc(C2CC2)c(/C=C/[C@@H](O)C[C@@H](O)CC(=O)O)c1-c1cc(Cl)ccc1F [II-20, (3R,5S,E)-7-(4-(5-chloro-2-fluorophenyl)-2,6-dicyclopropyl-5-(methoxymethyl)pyridin-3-yl)-3,5-dihydroxyhept-6-enoic acid] |  | 1.25 to 1.5 | 10 to 50 |  | 10 to 50 |  |  |  |
| COCc1c(C2CC2)nc(C)c(/C=C/[C@@H](O)C[C@@H](O)CC(=O)O)c1-c1ccc(F)cc1C [II-26, (3R,5S,E)-7-(6-cyclopropyl-4-(4-fluoro-2-methylphenyl)-5-(methoxymethyl)-2-methylpyridin-3-yl)-3,5-dihydroxyhept-6-enoic acid] |  | 1 to 1.25 | ≥ 500 |  | ≥ 500 | * (means≥1 and <1.25) |  |  |
| COCc1c(C2CC2)nc(C2CC2)c(/C=C/[C@@H](O)C[C@@H](O)CC(=O)O)c1-c1c(F)cc(F)cc1Cl [II-21, (3R,5S,E)-7-(4-(2-chloro-4,6-difluorophenyl)-2,6-dicyclopropyl-5-(methoxymethyl)pyridin-3-yl)-3,5-dihydroxyhept-6-enoic acid] |  | 1.5 to 1.75 | ≤ 10 |  | ≤ 10 |  |  |  |
| Cc1cc2c(-c3ccc(F)cc3)c(/C=C/[C@@H](O)C[C@@H](O)CC(=O)O)c(C3CC3)nc2s1 [Example I-5a, (3R,5S,E)-7-(6-cyclopropyl-4-(4-fluorophenyl)-2-methylthieno[2,3-b]pyridin-5-yl)-3,5-dihydroxyhept-6-enoic acid] |  | 1 to 1.25 |  |  |  | * (means≥1 and <1.25) | ≥ 500 | ≥ 500 |
